Assay: mn = molality of the nth substance listed, in mol/kg
Conditions: for surface tension liquid-gas: Pendant drop shape; for electrical conductivity: 100 kPa, Liquid, Mettler Toledo inLab 710

CCCCCCCCCCCC[N+](C)(C)CCC[N+](C)(C)CCCCCCCCCCCC.[Br-].[Br-] + O
Conditions | electrical conductivity, 298.15 K [S/m] | electrical conductivity, 303.15 K [S/m] | electrical conductivity, 308.15 K [S/m] | electrical conductivity, 313.15 K [S/m] | electrical conductivity, 318.15 K [S/m] | electrical conductivity, 323.15 K [S/m] | surface tension liquid-gas, 298.15 K [mN/m]
m1 = 0.0001 | – | – | – | – | – | – | 60.28
m1 = 0.0002 | – | – | – | – | – | – | 51.37
m1 = 0.0004 | – | – | – | – | – | – | 41.67
m1 = 0.00057 | 0.0117 | 0.0131 | – | 0.0152 | 0.0174 | – | –
m1 = 0.00059 | – | – | – | – | – | 0.0191 | –
m1 = 0.0006 | – | – | – | – | – | – | 36.01
m1 = 0.00061 | 0.0126 | 0.0139 | – | 0.0168 | 0.0186 | – | –
m1 = 0.00063 | – | – | – | – | – | 0.0203 | –
m1 = 0.00064 | 0.0132 | 0.0146 | 0.0159 | 0.0176 | 0.0199 | – | –
m1 = 0.00067 | 0.0138 | 0.0152 | 0.0168 | 0.0186 | 0.0209 | 0.0218 | –
m1 = 0.0007 | 0.0144 | 0.0159 | 0.0176 | 0.0197 | 0.0219 | 0.0229 | 33.17
m1 = 0.00074 | 0.0151 | 0.0168 | 0.0184 | 0.0207 | 0.0231 | 0.0241 | –
m1 = 0.00077 | 0.0156 | 0.0172 | 0.0191 | – | – | – | –
m1 = 0.00079 | – | – | – | 0.0217 | 0.0245 | 0.0256 | –
m1 = 0.0008 | 0.0161 | 0.0178 | 0.0196 | – | – | – | 32.87
m1 = 0.00083 | 0.0165 | 0.0185 | 0.0203 | 0.0229 | 0.0253 | 0.0272 | –
m1 = 0.00085 | – | – | – | – | – | – | 32.79
m1 = 0.00087 | 0.0168 | 0.0191 | 0.021 | 0.0237 | 0.0262 | 0.0282 | –
m1 = 0.0009 | – | – | – | – | – | – | 32.84
m1 = 0.00091 | 0.0171 | 0.0195 | 0.0216 | 0.0245 | 0.0271 | 0.0293 | –
m1 = 0.00095 | 0.0175 | 0.02 | 0.0223 | 0.0254 | 0.028 | 0.0305 | –
m1 = 0.001 | 0.0179 | 0.0205 | 0.0228 | 0.0262 | 0.0289 | 0.0319 | 32.76
m1 = 0.00105 | 0.0183 | 0.0209 | 0.0234 | 0.027 | 0.0299 | 0.0334 | –
m1 = 0.0011 | – | – | – | – | – | – | 32.75
m1 = 0.00111 | 0.0187 | 0.0212 | 0.024 | 0.0277 | 0.0308 | 0.0349 | –
m1 = 0.00118 | 0.0191 | 0.0217 | 0.0244 | 0.0285 | 0.0318 | 0.036 | –
m1 = 0.0012 | – | – | – | – | – | – | 32.81
m1 = 0.00125 | 0.0195 | 0.0221 | 0.025 | 0.0293 | 0.0327 | 0.0374 | –
m1 = 0.00134 | 0.0199 | 0.0225 | 0.0257 | 0.0301 | 0.0335 | 0.0384 | –
m1 = 0.00143 | 0.0203 | 0.0229 | 0.0264 | 0.031 | 0.0347 | 0.0394 | –
m1 = 0.0015 | – | – | – | – | – | – | 32.59
m1 = 0.00154 | 0.0208 | 0.0235 | 0.027 | 0.0319 | 0.0357 | 0.0404 | –
m1 = 0.0016 | 0.0211 | 0.0237 | – | – | – | 0.0413 | –
m1 = 0.00163 | – | – | 0.0277 | – | – | – | –
m1 = 0.00167 | 0.0214 | 0.0242 | – | 0.0327 | 0.037 | 0.042 | –
m1 = 0.0017 | – | – | 0.028 | – | – | – | –
m1 = 0.00174 | 0.0217 | 0.0247 | – | 0.0331 | 0.0376 | 0.0427 | –
m1 = 0.00178 | – | – | 0.0285 | – | – | – | –
m1 = 0.00182 | 0.0221 | 0.0251 | – | 0.0336 | 0.0383 | 0.0434 | –
m1 = 0.00186 | – | – | 0.0291 | – | – | – | –
m1 = 0.00191 | 0.0225 | 0.0256 | – | 0.0343 | 0.039 | 0.044 | –
m1 = 0.002 | 0.023 | 0.0263 | 0.0301 | 0.0349 | 0.0399 | 0.0451 | 32.62

O [water] + CCCCCCCCCCCCCC[N+](C)(C)CCCCCC[N+](C)(C)CCCCCCCCCCCCCC.[Br-].[Br-]
Conditions | surface tension liquid-gas [mN/m]
298.15 K, m2 = 0 | 71.98

From the NIST ThermoML archive (doi:10.1021/je500513b)
